Measured values published in patent publication US20070270352A1, “Method of Treatment” (priority 2002, published 2007).
Read-outs that look alike come from different tables or passages of the source.

What was measured:
[1] = tested on: p75^NTR (i.e. Chopper)-mediated cell apoptosis; assay type: cell-based, mice
[2] = target: T1, ROMK1 channels (Homo sapiens, UniProt P48048); conditions: cited from earlier work
T1 sequence (P48048 whole entry, looked up): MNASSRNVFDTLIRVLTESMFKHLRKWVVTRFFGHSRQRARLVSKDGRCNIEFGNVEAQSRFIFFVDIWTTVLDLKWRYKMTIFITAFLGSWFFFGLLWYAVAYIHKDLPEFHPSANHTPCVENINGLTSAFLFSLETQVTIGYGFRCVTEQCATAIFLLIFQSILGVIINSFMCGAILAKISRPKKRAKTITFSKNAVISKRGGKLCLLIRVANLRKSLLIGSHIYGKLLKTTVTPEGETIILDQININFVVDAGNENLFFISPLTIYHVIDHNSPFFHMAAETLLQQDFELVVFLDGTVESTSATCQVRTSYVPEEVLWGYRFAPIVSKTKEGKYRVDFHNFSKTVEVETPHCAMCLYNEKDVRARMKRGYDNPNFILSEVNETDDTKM

[3] = tested on: p75^NTR-mediated cell apoptosis; test: Caspase activity after injection into the eye of chick embryos (FIG. 11); assay type: in vivo; conditions: injected into the eye of chick embryos; 500 nM of Tertiapin
Experimental: FIG. 11 is a graphical representation showing that p75^NTR-mediated cell apoptosis requires functional GIRK channels. Apoptotic activity is measured in terms of caspase activity in the presence of Tertiapin, anti-NGF antibody and Iberiotoxin.
In FIG. 11, Tertiapin was injected into the eye of chick embryos. Anti-NGF antibodies and Iberiotoxin ([…]) were also tested. Apoptotic activity was measured using caspase activity.

[4] = target: T2, GIRK 1 and 4 subunits (Homo sapiens, UniProt P48544+P48549); conditions: cited from earlier work
T2 sequence (P48544 whole entry, looked up): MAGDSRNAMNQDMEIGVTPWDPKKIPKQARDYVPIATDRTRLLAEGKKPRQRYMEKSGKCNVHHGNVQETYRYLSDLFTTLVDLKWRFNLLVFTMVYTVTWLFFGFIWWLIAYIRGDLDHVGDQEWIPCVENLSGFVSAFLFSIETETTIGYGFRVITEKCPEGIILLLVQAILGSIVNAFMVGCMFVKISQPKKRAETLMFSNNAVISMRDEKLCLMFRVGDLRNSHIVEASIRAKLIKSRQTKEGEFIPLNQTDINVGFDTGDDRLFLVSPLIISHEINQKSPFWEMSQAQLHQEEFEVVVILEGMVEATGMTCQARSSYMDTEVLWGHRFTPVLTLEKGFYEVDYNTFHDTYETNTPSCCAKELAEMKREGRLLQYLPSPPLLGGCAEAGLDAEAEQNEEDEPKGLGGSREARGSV
T2 sequence (P48549 whole entry, looked up): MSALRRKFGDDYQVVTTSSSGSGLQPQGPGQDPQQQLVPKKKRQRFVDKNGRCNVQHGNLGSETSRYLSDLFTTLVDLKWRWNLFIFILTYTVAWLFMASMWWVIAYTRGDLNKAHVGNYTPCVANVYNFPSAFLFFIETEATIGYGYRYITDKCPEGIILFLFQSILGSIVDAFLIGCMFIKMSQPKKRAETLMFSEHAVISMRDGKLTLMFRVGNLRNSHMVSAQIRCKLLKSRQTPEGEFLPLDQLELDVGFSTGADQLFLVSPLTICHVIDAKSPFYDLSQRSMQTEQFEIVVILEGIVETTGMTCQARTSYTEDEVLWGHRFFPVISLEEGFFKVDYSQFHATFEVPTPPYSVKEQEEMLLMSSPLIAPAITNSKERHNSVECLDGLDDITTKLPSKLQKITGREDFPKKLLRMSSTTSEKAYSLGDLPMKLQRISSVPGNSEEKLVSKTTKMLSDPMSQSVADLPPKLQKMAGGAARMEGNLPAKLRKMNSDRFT

[5] = p75NTR (Chopper)-mediated apoptosis of neuronal cells, neuronal viability after Chopper peptide, inhibitor added just prior or pretreated

| Molecule | Prevention of killing? [1, 5] | further results |
| --- | --- | --- |
| 2-APB | No | – |
| Nc1ccncc1 [4-aminopyridine] | Toxic | – |
| CC(=O)OCOC(=O)CN(CC(=O)OCOC(C)=O)c1ccccc1OCCOc1ccccc1N(CC(=O)OCOC(C)=O)CC(=O)OCOC(C)=O [BAPTA-AM] | Yes | – |
| O=C(O)CN(CC(=O)O)c1ccccc1OCCOc1ccccc1N(CC(=O)O)CC(=O)O [BAPTA] | No | – |
| NCC(CC(=O)O)c1ccc(Cl)cc1 (stereo not shown) [Baclofen] | – | cell survival ([1]; GABA receptor agonist activating GIRKs (FIG. 10 model)): promotion of cell survival |
| CCCCN1CCCCC1C(=O)Nc1c(C)cccc1C (stereo not shown) [Bupivicane] | Yes | Chopper domain-mediated killing / p75^NTR (i.e. Chopper)-mediated cell apoptosis ([1]; FIGS. 3-7, 10): inhibited |
| CC[N+](CC)(CC)CC.[Cl-] [TEA, Tetraethylammonium chloride] | – | Chopper domain-mediated killing / p75^NTR (i.e. Chopper)-mediated cell apoptosis [1]: inhibited; Prevention of killing? [1]: Yes |
| Charybdotoxin | Yes | Chopper domain-mediated killing / p75^NTR (i.e. Chopper)-mediated cell apoptosis ([1]; FIGS. 3-7, 10): inhibited |
| Iberiotoxin (QFTDVDCSVSKECWSVCKDLFGVDRGKCMGKKCRCYQ; UniProt P24663 1-37, looked up) | No | – |
| Margatoxin | No | – |
| Pertussis toxin [Pertusis toxin] | No | Chopper domain-mediated killing / p75^NTR (i.e. Chopper)-mediated cell apoptosis ([1]; FIGS. 3-7, 10): still results in Chopper-mediated killing |
| TTX | – | Prevention of killing? [1]: No |
| Tertiapin (ALCNCNRIIIPHMCWKKCGKK) | Yes | affinity of inhibition [2]: nanomolar affinities; caspase activity (apoptotic activity) [3]: effective in reducing caspase activity; Chopper domain-mediated killing / p75^NTR (i.e. Chopper)-mediated cell apoptosis ([1]; FIGS. 3-7, 10): inhibited; affinity of inhibition [4]: nanomolar affinities |
| δ-Dendrotoxin | No | – |
